From patent US20180104223A1, “TREATMENT OF PAIN” (PROXIMAGEN LIMITED, priority 2015, published 2018)

Key:
[1] = test system: CFA (Complete Freunds Adjuvant) Induced Hypersensitivity in Rat; experiment: CFA induced hypersensitivity in rat, weight bearing (incapacitance tester); format: in vivo, rat (male Sprague Dawley)
Method: (3S)-Tetrahydrofuran-3-yl (4S)-4-isopropyl-1,4,6,7-tetrahydro-5H-imidazo[4,5-c]-pyridine-5-carboxylate was investigated (FIG. 1) in the CFA thermal hyperalgesia model, which is an established model for inflammatory pain. […] In more detail:
(§1) Assessment of the anti-hyperalgesic properties of (3S)-tetrahydrofuran-3-yl (4S)-4-isopropyl-1,4,6,7-tetrahydro-5H-imidazo[4,5-c]pyridine-5-carboxylate mesylate salt was determined through measurement of weight bearing following CFA induced hypersensitivity. Naive rats distribute their body weight equally between the two hind paws. However, when the injected (left) hind paw is painful, the weight is re-distributed so that less weight is put on the affected paw (decrease in weight bearing on injured paw). Weight bearing through each hind limb was measured using a rat incapacitance tester (Linton Instruments, UK). Rats were placed in the incapacitance tester with the hind paws on separate sensors and the average force exerted by both hind limbs was recorded over 4 seconds. The injection of CFA also induces an oedema that can be assessed by paw volume; this is measured using a plethysmometer. The rat's hind paw is placed into the cylinder containing a solution and the volume of displaced liquid determines the paw volume.
Naive male, Sprague Dawley rats were acclimatised with food and water available ad libitum. Habituation to the incapacitance tester was performed. Baseline weight bearing and paw volume recordings were taken prior to induction of insult. Inflammatory hypersensitivity was induced by intraplantar injection of CFA (100 ul of 1 mg/ml solution) into the left hind paw. A pre-treatment weight bearing and paw volume measurement was taken to assess hypersensitivity 23 hours post-CFA. Animals were then ranked and randomised according to CFA window in a Latin square design. (3S)-Tetrahydrofuran-3-yl (4S)-4-isopropyl-1,4,6,7-tetrahydro-5H-imidazo[4,5-c]pyridine-5-carboxylate mesylate salt was then given at 150, 250 and 500 mg/kg p.o. (dosed in water at 2 mL/Kg, pH ˜5-6), alongside vehicle and reference group (indomethacin), n=9-10 per group. Weight bearing was assessed in all groups 1, 2 and 4 hours post compound administration. Paw volume was assessed 4 hours post compound administration. Data was analysed by comparing treatment groups to control group at each time point.
Weight bearing (g) readings were taken for both right and left hind paws and the difference calculated. Data is expressed as % reversal of the hypersensitivity to pain, (post dose reading−pre dose reading)/(naïve reading−pre dose reading)×100, where naive weight bearing difference−pre dose weight bearing difference is defined as the CFA window to be reversed. Statistical analysis was conducted by means of repeated measures ANOVA followed by Planned comparison test using InVivoStat (invivostat.co.uk), (p<0.05 considered significant).

[2] = test system: CFA induced oedema, hind paw; experiment: CFA induced oedema in rat, paw volume (plethysmometer); format: in vivo, rat (male Sprague Dawley); settings: 150, 250 and 500 mg/kg p.o., 4 hours post compound administration
Method: as §1
Naive male, Sprague Dawley rats were acclimatised with food and water available ad libitum. […] Weight bearing was assessed in all groups 1, 2 and 4 hours post compound administration. Paw volume was assessed 4 hours post compound administration. Data was analysed by comparing treatment groups to control group at each time point.

SMILES	reversal of hypersensitivity (weight bearing) ([1]; 150 mg/kg p.o., rat, 1, 2 and 4 hours post dose)	reversal of hypersensitivity (weight bearing) ([1]; 250 mg/kg p.o., rat, 4 hours post dose)	reversal of hypersensitivity (weight bearing) ([1]; 500 mg/kg p.o., rat, 1, 2 and 4 hours post dose)	time of maximum effect on hypersensitivity ([1]; 500 mg/kg p.o., rat, post dose)	effect on paw volume [2]	efficacy compared with benchmark indomethacin in the CFA thermal hyperalgesia model ([1]; FIG. 1, summary statement)	efficacy in the CFA thermal hyperalgesia model (inflammatory pain) ([1]; FIG. 1, summary statement)
CC(C)[C@H]1c2nc[nH]c2CCN1C(=O)O[C@H]1CCOC1.CS(=O)(=O)O [(3S)-Tetrahydrofuran-3-yl (4S)-4-isopropyl-1,4,6,7-tetrahydro-5H-imidazo[4,5-c]pyridine-5-carboxylate, Methananesulfonic Acid Salt]	no significant reversal of hypersensitivity at any time point	significant reversal	effective at all time points	4 h	No effect	–	–
CC(C)[C@H]1c2[nH]cnc2CCN1C(=O)O[C@H]1CCOC1 [(3S)-Tetrahydrofuran-3-yl (4S)-4-isopropyl-1,4,6,7-tetrahydro-5H-imidazo[4,5-c]pyridine-5-carboxylate]	–	–	–	–	–	comparably in efficacy to the gold standard benchmark indomethacin	effective in a dose-dependent manner
